The text below walks through data of patent publication EP4119138A1 (Universität Hamburg, priority 2021, dated 2023).

The nature of one data set: S9 metabolism assay. It is filed as in vitro ADME, rat. The conditions noted are these: for amide cleavage: hydrolysis study in S9 extract of rat liver, identified via LC-MS; for Metabolic stability [% remaining at 1h in rat S9 fraction]: test compound 100 µM, 37 °C. Here is the method: Stock solutions of all test compounds (100 mM) were prepared in DMSO, stored at-20 °C and diluted in PB to 600 µM prior to the assay. Rat liver S9 fractions (SigmaAldrich, Lot # SLCC9026 and # SLCB2232) were combined, aliquoted (200 µL), stored at -80 °C and thawed to 0 °C before use. The reaction was performed in triplicates in eppendorf tubes with total volumes of 300 µL containing MgCl2 (5 mM), NADPH (5 mM), rat S9 fraction (1 mg) and the test compound (100 µM) in phosphate buffer (38.5 mM Na2HPO4, 11.5 mM KH2PO4, pH 7.3). 7-Ethoxycoumarin was assessed as reference inhibitor and a control without inhibitor but an equivalent amount of buffer instead was run. The ice cooled S9 fraction was added to a solution of MgCl2 and NADPH in PB and the resulting mixture was preincubated for 10 minutes at 37 °C in a shaker. Subsequently the reaction was started by addition of the test compound (50 µL), followed by threefold pipetting. After 0 h, 1 h and 3 h, samples of 50 µL were taken from the reaction, mixed with 150 µL ice-cooled methanol and centrifuged at 14000 rpm and 4 °C for 15 minutes. The supernatant was filtered with a syringe fiter, immediately quantified on HPLC and stored at -20 °C until LC/MS analysis.

A further data set in a line: in vitro. The conditions noted are these: African green monkey.
A further data set deals with CCHFV Afg 09-2990. The experiment in a line: microbe, parasite or virus in culture. The conditions noted are these: Orthonairovirus haemorrhagiae, Vero, 72 h. It counts as cell-based, Crimean-Congo hemorrhagic fever orthonairovirus.
The next data set addresses hDHODH (Homo sapiens, UniProt Q02127). Put plainly: hDHODH enzyme assay (DCPIP absorption, initial velocities). It is filed as biochemical. The conditions noted are these: for IC50: hDHODH inhibition, HsDHODH29-396 35 nM, 25 °C. The protocol: Expression and purification of the enzyme was carried out following the protocol of DAS et al. (SAR-Based Optimization of a 4-Quinoline Carboxylic Acid Analogue with Potent Antiviral Activity. ACS Med. Chem. Lett. 2013, 4, 517-521). The prepared enzyme stock solution (325 µM) was thawed to 0 °C and carefully diluted to 87.5 nM with ice-cooled Tris-HCl buffer (50 mM Tris-HCl, 0.1 % Triton X-100, pH 8.0)). Stock solutions of all test compounds (100 mM), L-DHO (250 mM) and CoQ1 (250 mM) were prepared in DMSO, stored at -20 °C and thawed to room temperature before use. The reaction was performed in triplicates in a 96 well plate with total volumes of 200 µL containing L-dihydroorotate (L-DHO; 0.10 mM), coenzyme Q1 (CoQ1; 25 µM), 2,6-dichlorophenolindophenol (DCPIP; 60 µM), HsDHODH29-396 (35 nM) and the test compound (varying concentrations) in Tris-HCl buffer.
The compound stock solutions were diluted in Tris-HCl buffer to give nine different concentrations and each sample was treated with a freshly prepared substrate mixture containing L-DHO, CoQ1 and DCPIP. By simultaneous addition of 80 µL ice-cooled enzyme solution ([…]) per well and immediate mixing by thorough pipetting, the reaction was started. The absorption of the mixture was monitored using a spectrophotometer (Berthold Technologies TriStar2S LB942 Multimode Reader, ICE software) with one data point per 10 seconds at an excitation wavelength of 600 nm and a temperature of 25 °C. During the first 200 s from enzyme addition, linear initial enzyme velocites were recorded, from which the IC50 values were calculated by non-linear fitting (Origin software) to the following equation: v = (V0)/(1 + (c)/(IC50)) [formula] wherein • v is the determined initial, linear enzyme velocity, • V0 is the calculated enzyme velocity without test compound and • c is the concentration of added test compound.

Another data set relates to EBOV Mayinga. The experiment in a line: microbe, parasite or virus in culture. The conditions noted are these: Zaire ebolavirus, Vero, 96 h. It counts as cell-based, Ebola virus.
For data set [1], the system named is human PBMCs (CD4/CD8 T cells). The experiment in a line: Lymphocyte inhibition, Cytostim-stimulated PBMCs, flow cytometry. The conditions noted are these: T-cell stimulation by Cytostim, read-out: IC50 for CD4 and CD8 replication. It is filed as cell-based. Here is the method:
Lymphocyte inhibition was determined by using human PBMCs (peripheral blood mononuclear cells) as cell culture. The inhibitor compound was added at 8 different concentrations with each determination in triplicate and one control without inhibitor. T-cell stimulation was done by Cytostim, a reagent that binds T-cell receptors to MHC molecules of the antigen-presenting cells in an antibody-based manner and enables T-cell stimulation. Quantification was achieved by a flow cytometry-based method (Facs analysis) with staining of PBMCs with eFluor670 (eBioscience(TM)). The PBMCs are assigned to their populations (CD4/CD8 T cells) by use of other markers.
A general note: In flow cytometry, cells or beads pass a laser one at a time.

A further data set has as its system LASV Ba366. Put plainly: microbe, parasite or virus in culture. The conditions noted are these: Mammarenavirus lassaense, Vero, 72 h. It counts as cell-based, Lassa virus.
The nature of data set [2]: Octanol-water partition coefficient (logD). It is filed as physicochemical. The conditions noted are these: PBS pH 7.4 / octanol, 25 °C; read-out: Log D (PBS pH 7.4/ octanol). Here is the method:
Octanol and phosphate buffered saline (PBS, 137 mM NaCl, 2.7 mM KCl, 10 mM Na2HPO4, 2.0 mM KH2PO4, pH 7.4) were saturated with each other prior to the experiment. Stock solutions of all test compounds (100 mM) were prepared in DMSO, stored at - 20 °C and diluted with the saturated PBS to 100 µM prior to the experiment. The experiment was performed in duplicates in 2 mL HPLC-vials. 300 µL of the test compound solution (100 µM) was overlayered with 300 µL saturated octanol. The emulsions were vortexed for 1 min and shaken for 1 h at 180 rpm and 25 °C. After phase separation, the aqueous phases and the initial 100 µM compound solution were quantified on HPLC.

The nature of data set [3]: Membrane permeability (PAMPA assay). The conditions noted are these: PBS pH 7.4, 5 h, 25 °C. It is filed as in vitro ADME. Here is the method: Stock solutions of all test compounds (100 mM) were prepared in DMSO, stored at -20 °C and diluted with phosphate buffered saline (PBS, 137 mM NaCl, 2.7 mM KCl, 10 mM Na2HPO4, 2.0 mM KH2PO4, pH 7.4) to 200 µM prior to the experiment. The assay was performed in triplicates in a 96 well Corning Gentest Precoated PAMPA Plate System, which was stored at -20 °C and thawed to room temperature for 1 h prior to the assay. Wells of the donor plate were filled with 300 µL of the compound solutions (200 µM) and 200 µL PBS were added to the wells of the receiver plate. Two controls without inhibitor but an equivalent amount of buffer instead was run. Bubble-free assembling of the two plates was followed by 5 h incubation at 25 °C. Finally, the plates were carefully separated from each other. 150 µL of each well of both plates were transferred to black 96-well FluoroNunc™ plates and quantified on fluorescence spectrophotometer (Berthold Technologies TriStar^2S LB942 Multimode Reader, ICE software). Membrane Permeabilities were calculated using the following equation: Ppampa = (−ln(1−(cacc (t))/(ceq)))/(Aperm ⋅((1)/(Vdon)+(1)/(Vacc))⋅t) [formula] wherein • Cacc(t) is the compound concentration in acceptor well at time t, • Aperm is the area of the membrane filter (0.3 cm^2), • Vdon is the donor well volume (0.3 mL), • Vacc is the acceptor well volume (0.2 mL) and • Ceq is the equilibrium concentration with ceq = (cdon (t)⋅Vdon + cacc (t)⋅Vacc)/(Vdon + Vacc) [formula] where cdon(t) is the compound concentration in donor well at time t.
A general note: In PAMPA a lipid-coated filter parts donor from acceptor wells.

hDHODH, sequence (Q02127 29-395 limits assumed): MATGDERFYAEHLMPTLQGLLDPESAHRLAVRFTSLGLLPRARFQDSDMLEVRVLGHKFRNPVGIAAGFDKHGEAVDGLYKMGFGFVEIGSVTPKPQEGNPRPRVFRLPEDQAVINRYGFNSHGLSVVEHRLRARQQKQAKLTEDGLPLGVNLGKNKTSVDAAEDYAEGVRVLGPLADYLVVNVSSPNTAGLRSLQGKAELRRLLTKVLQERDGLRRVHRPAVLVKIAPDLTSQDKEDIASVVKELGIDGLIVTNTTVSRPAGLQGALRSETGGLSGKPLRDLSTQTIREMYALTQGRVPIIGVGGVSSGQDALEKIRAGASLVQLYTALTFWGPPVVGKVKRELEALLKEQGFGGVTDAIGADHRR

On to `CCC(C)(C)c1cccc2cc(CNC(=O)Nc3ccccc3C(=O)O)oc12` [Example 1], for which the amide cleavage entry in “S9 metabolism assay” is given as “no amide cleavage”. In addition, the “Metabolic stability [% remaining at 1h in rat S9 fraction]” value in “S9 metabolism assay” came to 68.2%. This molecule came in with a CC50 in the data set “in vitro” of more than 1000 nM. The IC50 (as a rule, the concentration that inhibits the measured activity by half) in the data set with CCHFV Afg 09-2990 is 100 nM; at hDHODH, 9.2 nM; with EBOV Mayinga it was 14 nM; in data set [1], approximately 150 nM; in the data set with LASV Ba366, 35 nM. For the same molecule, the logD in [2] is 2.98. Also, the Papp (commonly the rate of passage across a membrane or cell layer, normalised by area and donor concentration) at 5 h, 200 µM in data set [3] turned out to be 5.74 ×10⁻⁶ cm/s.
As to `O=C(NCc1cc2cccc(C(F)(F)F)c2o1)Nc1ccccc1C(=O)O` [Example 2, 2-(3-((7-(trifluoromethyl)benzofuran-2-yl)methyl)ureido)benzoic acid], in the data set “S9 metabolism assay”, the amide cleavage entry was “no amide cleavage” and the “Metabolic stability [% remaining at 1h in rat S9 fraction]” value stood at 92.0%. At hDHODH, this molecule came in with an IC50 of 90.7 nM. The IC50 with LASV Ba366 was 1000 nM. Further, in data set [2], the logD turned out to be 1.96. In addition, in data set [3], the Papp at 5 h, 200 µM is 3.23 ×10⁻⁶ cm/s.
`O=C(NCc1cc2cc(F)cc(C(F)(F)F)c2o1)Nc1ccccc1C(=O)O` [Example 3] had an IC50 against hDHODH of approximately 230 nM.
For `CCC(=O)Nc1ccc(C#Cc2ccc(N3CCOCC3)cc2)cc1C(=O)O` [Example 4], the IC50 on hDHODH came to 50 nM; with LASV Ba366 it was 600 nM.
With `O=C(Nc1cnccc1C(=O)O)Nc1cccc2ccccc12` [Example 18], in “S9 metabolism assay”, the amide cleavage entry is “did not show amide cleavage” and the “Metabolic stability [% remaining at 1h in rat S9 fraction]” value came to 89.6%. For the same molecule, the “percentual inhibition of hDHODH” value at hDHODH (at a 1 µM concentration) is on record as 91%. For the same molecule, on hDHODH, the IC50 was found to be 81 nM. The logD in data set [2] is 0.32. The Papp at 5 h, 200 µM in data set [3] came to 6.84 ×10⁻⁶ cm/s.
For `CCC(C)c1ccccc1OCCCC(=O)Nc1ccccc1C(=O)O` (centres unmarked) [reference compound], in “S9 metabolism assay”, the amide cleavage entry is “showed a cleavage of the amide bond”.
